Key:
Type in all cases: in vivo
Galium aparine = assay: Pot experiment, soil treatment, control of Galium aparine (fresh weight, Colby)
Aegilops tauschii = assay: Pot experiment, soil treatment, control of Aegilops tauschii (fresh weight, Colby); conditions: mixtures: both AIs at these rates, after 35 days
Lolium multiflorum Lamk = assay: Pot experiment, soil treatment, control of Lolium multiflorum Lamk (fresh weight, Colby); conditions: mixtures: both AIs at these rates, after 35 days
Lithospermum arvense = assay: Pot experiment, soil treatment, control of Lithospermum arvense (fresh weight, Colby)
Solanum nigrum = assay: Pot experiment (glass greenhouse), soil treatment, control of Solanum nigrum (fresh weight, Colby)
Bromus japonicus = assay: Pot experiment, soil treatment, control of Bromus japonicus (fresh weight, Colby); conditions: mixtures: both AIs at these rates, after 35 days
[1] = g ai/ha: pyroxasulfone 11.25, fluorochloridone 31.25, aclonifen 150, diflufenican 14.0625, terbutryn 140.625
[2] = g ai/ha: pyroxasulfone 22.5, fluorochloridone 62.5, aclonifen 300, diflufenican 28.125, terbutryn 281.25
[3] = g ai/ha: pyroxasulfone 45, fluorochloridone 125, aclonifen 600, diflufenican 56.25, terbutryn 562.5
[4] = g ai/ha: pyroxasulfone 90, fluorochloridone 250, aclonifen 1200, diflufenican 112.5, terbutryn 1125
[5] = g ai/ha: pyroxasulfone 180, fluorochloridone 500, aclonifen 2400, diflufenican 225, terbutryn 2250
[6] = g ai/ha: pyroxasulfone 360, fluorochloridone 1000, aclonifen 4800, diflufenican 450, terbutryn 4500

O=C(Nc1ccc(F)cc1F)c1cccnc1Oc1cccc(C(F)(F)F)c1 [diflufenican, N-(2,4-difluorophenyl)-2-(3-(trifluoromethyl)phenoxy)-3-pyridinecarboxamide]
Measured fresh weight survival rate (%) - E (Galium aparine; 14.0625 g ai/ha): 38.4% | Measured fresh weight survival rate (%) - E (Galium aparine; 28.125 g ai/ha): 27.4% | Measured fresh weight survival rate (%) - E (Galium aparine; 56.25 g ai/ha): 26.0% | Measured fresh weight survival rate (%) - E (Galium aparine; 112.5 g ai/ha): 15.1% | Measured fresh weight survival rate (%) - E (Galium aparine; 225 g ai/ha): 1.4% | inhibition at 14.0625 g/ha (Galium aparine; Galium aparine, soil, 14.0625 g ai/ha, read-out: Measured fresh weight inhibition rate (%)): 61.6% | inhibition at 28.125 g/ha (Galium aparine; Galium aparine, soil, 28.125 g ai/ha, read-out: Measured fresh weight inhibition rate (%)): 72.6% | inhibition at 56.25 g/ha (Galium aparine; Galium aparine, soil, 56.25 g ai/ha, read-out: Measured fresh weight inhibition rate (%)): 74% | inhibition at 112.5 g/ha (Galium aparine; Galium aparine, soil, 112.5 g ai/ha, read-out: Measured fresh weight inhibition rate (%)): 84.9% | inhibition at 225 g/ha (Galium aparine; Galium aparine, soil, 225 g ai/ha, read-out: Measured fresh weight inhibition rate (%)): 98.6% | Measured fresh weight inhibition rate (%) (Aegilops tauschii; [1]): 3.7% | Measured fresh weight survival rate (%) - E (Aegilops tauschii; [1]): 96.3% | Measured fresh weight inhibition rate (%) (Aegilops tauschii; [2]): 6.7% | Measured fresh weight survival rate (%) - E (Aegilops tauschii; [2]): 93.3% | Measured fresh weight inhibition rate (%) (Aegilops tauschii; [3]): 4.3% | Measured fresh weight survival rate (%) - E (Aegilops tauschii; [3]): 95.7% | Measured fresh weight inhibition rate (%) (Aegilops tauschii; [4]): 6.7% | Measured fresh weight survival rate (%) - E (Aegilops tauschii; [4]): 93.3% | Measured fresh weight inhibition rate (%) (Aegilops tauschii; [5]): 10.4% | Measured fresh weight survival rate (%) - E (Aegilops tauschii; [5]): 89.6% | Measured fresh weight inhibition rate (%) (Aegilops tauschii; [6]): 37.2% | Measured fresh weight survival rate (%) - E (Aegilops tauschii; [6]): 62.8% | Measured fresh weight inhibition rate (%) (Lolium multiflorum Lamk; [1]): 87.0% | Measured fresh weight survival rate (%) - E (Lolium multiflorum Lamk; [1]): 13.0% | Measured fresh weight inhibition rate (%) (Lolium multiflorum Lamk; [2]): 88.0% | Measured fresh weight survival rate (%) - E (Lolium multiflorum Lamk; [2]): 12.0% | Measured fresh weight inhibition rate (%) (Lolium multiflorum Lamk; [3]): 93.2% | Measured fresh weight survival rate (%) - E (Lolium multiflorum Lamk; [3]): 6.8% | Measured fresh weight inhibition rate (%) (Lolium multiflorum Lamk; [4]): 99.5% | Measured fresh weight survival rate (%) - E (Lolium multiflorum Lamk; [4]): 0.5% | Measured fresh weight inhibition rate (%) (Lolium multiflorum Lamk; [5]): 100.0% | Measured fresh weight survival rate (%) - E (Lolium multiflorum Lamk; [5]): 0.0% | Measured fresh weight inhibition rate (%) (Lolium multiflorum Lamk; [6]): 100.0% | Measured fresh weight survival rate (%) - E (Lolium multiflorum Lamk; [6]): 0.0% | Measured fresh weight survival rate (%) - E (Lithospermum arvense; 14.0625 g ai/ha): 33.3% | Measured fresh weight survival rate (%) - E (Lithospermum arvense; 28.125 g ai/ha): 17.4% | Measured fresh weight survival rate (%) - E (Lithospermum arvense; 56.25 g ai/ha): 15.9% | Measured fresh weight survival rate (%) - E (Lithospermum arvense; 112.5 g ai/ha): 1.4% | Measured fresh weight survival rate (%) - E (Lithospermum arvense; 225 g ai/ha): 0.0% | inhibition at 14.0625 g/ha (Lithospermum arvense; Buglossoides arvensis, soil, 14.0625 g ai/ha, read-out: Measured fresh weight inhibition rate (%)): 66.7% | inhibition at 28.125 g/ha (Lithospermum arvense; Buglossoides arvensis, soil, 28.125 g ai/ha, read-out: Measured fresh weight inhibition rate (%)): 82.6% | inhibition at 56.25 g/ha (Lithospermum arvense; Buglossoides arvensis, soil, 56.25 g ai/ha, read-out: Measured fresh weight inhibition rate (%)): 84.1% | inhibition at 112.5 g/ha (Lithospermum arvense; Buglossoides arvensis, soil, 112.5 g ai/ha, read-out: Measured fresh weight inhibition rate (%)): 98.6% | inhibition at 225 g/ha (Lithospermum arvense; Buglossoides arvensis, soil, 225 g ai/ha, read-out: Measured fresh weight inhibition rate (%)): 100% | Measured fresh weight survival rate (%) - E (Solanum nigrum; 14.0625 g ai/ha): 94.1% | Measured fresh weight survival rate (%) - E (Solanum nigrum; 28.125 g ai/ha): 90.2% | Measured fresh weight survival rate (%) - E (Solanum nigrum; 56.25 g ai/ha): 79.2% | Measured fresh weight survival rate (%) - E (Solanum nigrum; 112.5 g ai/ha): 71.8% | Measured fresh weight survival rate (%) - E (Solanum nigrum; 225 g ai/ha): 63.5% | inhibition at 14.0625 g/ha (Solanum nigrum; Solanum nigrum, soil, 14.0625 g ai/ha, read-out: Measured fresh weight inhibition rate (%)): 5.9% | inhibition at 28.125 g/ha (Solanum nigrum; Solanum nigrum, soil, 28.125 g ai/ha, read-out: Measured fresh weight inhibition rate (%)): 9.8% | inhibition at 56.25 g/ha (Solanum nigrum; Solanum nigrum, soil, 56.25 g ai/ha, read-out: Measured fresh weight inhibition rate (%)): 20.8% | inhibition at 112.5 g/ha (Solanum nigrum; Solanum nigrum, soil, 112.5 g ai/ha, read-out: Measured fresh weight inhibition rate (%)): 28.2% | inhibition at 225 g/ha (Solanum nigrum; Solanum nigrum, soil, 225 g ai/ha, read-out: Measured fresh weight inhibition rate (%)): 36.5% | Measured fresh weight inhibition rate (%) (Bromus japonicus; [1]): 59.8% | Measured fresh weight survival rate (%) - E (Bromus japonicus; [1]): 40.2% | Measured fresh weight inhibition rate (%) (Bromus japonicus; [2]): 73.2% | Measured fresh weight survival rate (%) - E (Bromus japonicus; [2]): 26.8% | Measured fresh weight inhibition rate (%) (Bromus japonicus; [3]): 80.4% | Measured fresh weight survival rate (%) - E (Bromus japonicus; [3]): 19.6% | Measured fresh weight inhibition rate (%) (Bromus japonicus; [4]): 95.9% | Measured fresh weight survival rate (%) - E (Bromus japonicus; [4]): 4.1% | Measured fresh weight inhibition rate (%) (Bromus japonicus; [5]): 100.0% | Measured fresh weight survival rate (%) - E (Bromus japonicus; [5]): 0.0%

Cn1nc(C(F)(F)F)c(CS(=O)(=O)C2=NOC(C)(C)C2)c1OC(F)F [pyroxasulfone, 3-[(5-difluoromethoxy-1-methyl-3-trifluoromethylpyrazol-4-yl)methylsulfonyl]-4,5-dihydro-5,5-di methyl-1,2-isoxazole]
Measured fresh weight survival rate (%) - E (Galium aparine; 11.25 g ai/ha): 67.1% | Measured fresh weight survival rate (%) - E (Galium aparine; 22.5 g ai/ha): 21.9% | Measured fresh weight survival rate (%) - E (Galium aparine; 45 g ai/ha): 4.1% | Measured fresh weight survival rate (%) - E (Galium aparine; 90 g ai/ha): 4.1% | Measured fresh weight survival rate (%) - E (Galium aparine; 180 g ai/ha): 0.0% | inhibition at 11.25 g/ha (Galium aparine; Galium aparine, soil, 11.25 g ai/ha, read-out: Measured fresh weight inhibition rate (%)): 32.9% | inhibition at 22.5 g/ha (Galium aparine; Galium aparine, soil, 22.5 g ai/ha, read-out: Measured fresh weight inhibition rate (%)): 78.1% | inhibition at 45 g/ha (Galium aparine; Galium aparine, soil, 45 g ai/ha, read-out: Measured fresh weight inhibition rate (%)): 95.9% | inhibition at 90 g/ha (Galium aparine; Galium aparine, soil, 90 g ai/ha, read-out: Measured fresh weight inhibition rate (%)): 95.9% | inhibition at 180 g/ha (Galium aparine; Galium aparine, soil, 180 g ai/ha, read-out: Measured fresh weight inhibition rate (%)): 100% | Measured fresh weight inhibition rate (%) (Aegilops tauschii; [1]): 4.9% | Measured fresh weight survival rate (%) - E (Aegilops tauschii; [1]): 95.1% | Measured fresh weight inhibition rate (%) (Aegilops tauschii; [2]): 11.6% | Measured fresh weight survival rate (%) - E (Aegilops tauschii; [2]): 88.4% | Measured fresh weight inhibition rate (%) (Aegilops tauschii; [3]): 47.6% | Measured fresh weight survival rate (%) - E (Aegilops tauschii; [3]): 52.4% | Measured fresh weight inhibition rate (%) (Aegilops tauschii; [4]): 50.0% | Measured fresh weight survival rate (%) - E (Aegilops tauschii; [4]): 50.0% | Measured fresh weight inhibition rate (%) (Aegilops tauschii; [5]): 78.7% | Measured fresh weight survival rate (%) - E (Aegilops tauschii; [5]): 21.3% | Measured fresh weight inhibition rate (%) (Aegilops tauschii; [6]): 97.6% | Measured fresh weight survival rate (%) - E (Aegilops tauschii; [6]): 2.4% | Measured fresh weight inhibition rate (%) (Lolium multiflorum Lamk; [1]): 68.2% | Measured fresh weight survival rate (%) - E (Lolium multiflorum Lamk; [1]): 31.8% | Measured fresh weight inhibition rate (%) (Lolium multiflorum Lamk; [2]): 94.8% | Measured fresh weight survival rate (%) - E (Lolium multiflorum Lamk; [2]): 5.2% | Measured fresh weight inhibition rate (%) (Lolium multiflorum Lamk; [3]): 100.0% | Measured fresh weight survival rate (%) - E (Lolium multiflorum Lamk; [3]): 0.0% | Measured fresh weight inhibition rate (%) (Lolium multiflorum Lamk; [4]): 100.0% | Measured fresh weight survival rate (%) - E (Lolium multiflorum Lamk; [4]): 0.0% | Measured fresh weight inhibition rate (%) (Lolium multiflorum Lamk; [5]): 100.0% | Measured fresh weight survival rate (%) - E (Lolium multiflorum Lamk; [5]): 0.0% | Measured fresh weight inhibition rate (%) (Lolium multiflorum Lamk; [6]): 100.0% | Measured fresh weight survival rate (%) - E (Lolium multiflorum Lamk; [6]): 0.0% | Measured fresh weight survival rate (%) - E (Lithospermum arvense; 11.25 g ai/ha): 63.8% | Measured fresh weight survival rate (%) - E (Lithospermum arvense; 22.5 g ai/ha): 55.1% | Measured fresh weight survival rate (%) - E (Lithospermum arvense; 45 g ai/ha): 27.5% | Measured fresh weight survival rate (%) - E (Lithospermum arvense; 90 g ai/ha): 21.7% | Measured fresh weight survival rate (%) - E (Lithospermum arvense; 180 g ai/ha): 10.1% | inhibition at 11.25 g/ha (Lithospermum arvense; Buglossoides arvensis, soil, 11.25 g ai/ha, read-out: Measured fresh weight inhibition rate (%)): 36.2% | inhibition at 22.5 g/ha (Lithospermum arvense; Buglossoides arvensis, soil, 22.5 g ai/ha, read-out: Measured fresh weight inhibition rate (%)): 44.9% | inhibition at 45 g/ha (Lithospermum arvense; Buglossoides arvensis, soil, 45 g ai/ha, read-out: Measured fresh weight inhibition rate (%)): 72.5% | inhibition at 90 g/ha (Lithospermum arvense; Buglossoides arvensis, soil, 90 g ai/ha, read-out: Measured fresh weight inhibition rate (%)): 78.3% | inhibition at 180 g/ha (Lithospermum arvense; Buglossoides arvensis, soil, 180 g ai/ha, read-out: Measured fresh weight inhibition rate (%)): 89.9% | Measured fresh weight survival rate (%) - E (Solanum nigrum; 11.25 g ai/ha): 82.4% | Measured fresh weight survival rate (%) - E (Solanum nigrum; 22.5 g ai/ha): 68.2% | Measured fresh weight survival rate (%) - E (Solanum nigrum; 45 g ai/ha): 38.4% | Measured fresh weight survival rate (%) - E (Solanum nigrum; 90 g ai/ha): 8.2% | Measured fresh weight survival rate (%) - E (Solanum nigrum; 180 g ai/ha): 4.7% | inhibition at 22.5 g/ha (Solanum nigrum; Solanum nigrum, soil, read-out: Measured fresh weight inhibition rate (%)): 31.8% | inhibition at 11.25 g/ha (Solanum nigrum; Solanum nigrum, soil, 11.25 g ai/ha, read-out: Measured fresh weight inhibition rate (%)): 17.6% | inhibition at 45 g/ha (Solanum nigrum; Solanum nigrum, soil, 45 g ai/ha, read-out: Measured fresh weight inhibition rate (%)): 61.6% | inhibition at 90 g/ha (Solanum nigrum; Solanum nigrum, soil, 90 g ai/ha, read-out: Measured fresh weight inhibition rate (%)): 91.8% | inhibition at 180 g/ha (Solanum nigrum; Solanum nigrum, soil, 180 g ai/ha, read-out: Measured fresh weight inhibition rate (%)): 95.3% | Measured fresh weight inhibition rate (%) (Bromus japonicus; [1]): 74.2% | Measured fresh weight survival rate (%) - E (Bromus japonicus; [1]): 25.8% | Measured fresh weight inhibition rate (%) (Bromus japonicus; [2]): 88.7% | Measured fresh weight survival rate (%) - E (Bromus japonicus; [2]): 11.3% | Measured fresh weight inhibition rate (%) (Bromus japonicus; [3]): 100.0% | Measured fresh weight survival rate (%) - E (Bromus japonicus; [3]): 0.0% | Measured fresh weight inhibition rate (%) (Bromus japonicus; [4]): 100.0% | Measured fresh weight survival rate (%) - E (Bromus japonicus; [4]): 0.0% | Measured fresh weight inhibition rate (%) (Bromus japonicus; [5]): 100.0% | Measured fresh weight survival rate (%) - E (Bromus japonicus; [5]): 0.0%

From patent US20260013504A1, “HERBICIDAL MIXTURE, HERBICIDAL COMPOSITION, METHOD, USE, AND KITS FOR CONTROLLING UNDESIRABLE VEGETATION” (ADAMA AGAN LTD., priority 2022, published 2026)
